Results on eleven molecules are retold here after ChEMBL document CHEMBL5465560, “Selectivity Literature for EUbOPEN Chemogenomic Library” (2024).

Assay [1] has as its target T1, Serine/threonine-protein kinase Nek3 (Homo sapiens) (UniProt P51956).
T1 sequence (whole entry): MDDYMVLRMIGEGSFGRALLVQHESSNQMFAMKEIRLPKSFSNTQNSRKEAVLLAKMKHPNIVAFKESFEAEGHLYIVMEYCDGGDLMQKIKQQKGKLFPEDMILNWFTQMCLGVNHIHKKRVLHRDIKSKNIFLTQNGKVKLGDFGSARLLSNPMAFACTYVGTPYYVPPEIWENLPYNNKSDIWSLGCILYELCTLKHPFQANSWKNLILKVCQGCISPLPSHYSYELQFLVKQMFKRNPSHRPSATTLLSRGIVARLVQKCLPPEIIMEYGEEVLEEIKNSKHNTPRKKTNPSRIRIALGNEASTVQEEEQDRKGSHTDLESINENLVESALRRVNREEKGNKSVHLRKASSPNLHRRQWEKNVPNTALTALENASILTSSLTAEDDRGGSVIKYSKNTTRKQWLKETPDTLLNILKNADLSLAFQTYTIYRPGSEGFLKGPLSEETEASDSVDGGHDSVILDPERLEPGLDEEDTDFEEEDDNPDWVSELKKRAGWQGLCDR
The assay can be described thus: Selectivity interaction (Kinase panel (KiNativ target engagement assay in Jurkat cells)) EUB0001635a NEK3. It counts as cell-based. The following applies: at 1 µM.

Assay [2] concerns the target Casein kinase II subunit alpha' (Homo sapiens) (UniProt P19784). The assay is described as follows: Selectivity interaction (Kinase panel (KiNativ target engagement assay in Jurkat cells)) EUB0001635a CSNK2A2. It counts as cell-based. The following applies: Selectivity number of off-targets 0.0, Selectivity number of targets 233.0, Source Knowledge https://www.sciencedirect.com/science/article/pii/S2451945619300674?via%3Dihub, at 1 µM.

In assay [3] the target is Tyrosine-protein kinase receptor UFO (Homo sapiens) (UniProt P30530). The assay is described as follows: Selectivity interaction (KinomeScan (DiscoverX)) EUB0000666a AXL. The settings on record: at 10 µM.
Tyrosine-protein kinase receptor UFO (Homo sapiens), sequence (P30530 whole entry): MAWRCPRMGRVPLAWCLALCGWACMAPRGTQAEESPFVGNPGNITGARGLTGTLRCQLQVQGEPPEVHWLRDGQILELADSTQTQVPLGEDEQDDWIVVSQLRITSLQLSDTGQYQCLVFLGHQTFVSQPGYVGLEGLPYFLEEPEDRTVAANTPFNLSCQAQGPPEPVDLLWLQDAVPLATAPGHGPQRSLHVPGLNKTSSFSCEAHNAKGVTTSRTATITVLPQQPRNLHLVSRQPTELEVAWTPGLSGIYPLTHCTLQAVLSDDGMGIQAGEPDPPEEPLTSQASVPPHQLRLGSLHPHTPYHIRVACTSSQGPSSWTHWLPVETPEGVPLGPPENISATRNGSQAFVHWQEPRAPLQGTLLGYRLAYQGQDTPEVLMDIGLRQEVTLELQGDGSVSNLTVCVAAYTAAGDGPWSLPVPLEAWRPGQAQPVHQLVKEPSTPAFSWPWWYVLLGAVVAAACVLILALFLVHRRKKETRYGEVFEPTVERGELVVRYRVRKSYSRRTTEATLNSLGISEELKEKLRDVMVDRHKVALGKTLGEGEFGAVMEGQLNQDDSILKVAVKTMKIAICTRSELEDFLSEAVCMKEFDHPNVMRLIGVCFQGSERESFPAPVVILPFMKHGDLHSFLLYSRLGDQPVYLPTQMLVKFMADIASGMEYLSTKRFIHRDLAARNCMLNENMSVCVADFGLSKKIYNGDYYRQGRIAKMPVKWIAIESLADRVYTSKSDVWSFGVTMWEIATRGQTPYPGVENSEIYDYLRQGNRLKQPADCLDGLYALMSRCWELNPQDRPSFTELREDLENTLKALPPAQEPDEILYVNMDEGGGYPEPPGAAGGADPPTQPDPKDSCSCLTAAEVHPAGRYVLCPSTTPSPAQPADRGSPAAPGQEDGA
Assay [4] deals with Mitogen-activated protein kinase 9 (Homo sapiens, UniProt P45984). The assay is described as follows: Selectivity interaction (Kinase panel (DSF assay)) EUB0001558a MAPK9. A general note: Differential scanning fluorimetry follows unfolding on heating by fluorescence.
Mitogen-activated protein kinase 9, sequence (P45984 whole entry, looked up): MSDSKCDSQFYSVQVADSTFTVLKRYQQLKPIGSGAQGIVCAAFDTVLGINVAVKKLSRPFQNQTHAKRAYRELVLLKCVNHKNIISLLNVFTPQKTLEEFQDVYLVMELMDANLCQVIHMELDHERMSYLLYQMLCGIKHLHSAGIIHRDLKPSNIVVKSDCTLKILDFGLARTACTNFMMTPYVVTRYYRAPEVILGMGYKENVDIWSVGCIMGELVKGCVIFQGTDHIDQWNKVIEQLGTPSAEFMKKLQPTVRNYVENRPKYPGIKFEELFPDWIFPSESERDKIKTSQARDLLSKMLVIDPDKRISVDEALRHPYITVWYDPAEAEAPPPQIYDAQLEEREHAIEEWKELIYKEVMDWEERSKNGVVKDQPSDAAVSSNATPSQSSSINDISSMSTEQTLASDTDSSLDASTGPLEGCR
The target of assay [5] is Calcium/calmodulin-dependent protein kinase type II subunit gamma (Homo sapiens) (UniProt Q13555). The assay can be described thus: Selectivity interaction (KinomeScan (DiscoverX)) EUB0000229b CAMK2G. The following applies: at 10 µM.
Calcium/calmodulin-dependent protein kinase type II subunit gamma (Homo sapiens), sequence (Q13555 whole entry): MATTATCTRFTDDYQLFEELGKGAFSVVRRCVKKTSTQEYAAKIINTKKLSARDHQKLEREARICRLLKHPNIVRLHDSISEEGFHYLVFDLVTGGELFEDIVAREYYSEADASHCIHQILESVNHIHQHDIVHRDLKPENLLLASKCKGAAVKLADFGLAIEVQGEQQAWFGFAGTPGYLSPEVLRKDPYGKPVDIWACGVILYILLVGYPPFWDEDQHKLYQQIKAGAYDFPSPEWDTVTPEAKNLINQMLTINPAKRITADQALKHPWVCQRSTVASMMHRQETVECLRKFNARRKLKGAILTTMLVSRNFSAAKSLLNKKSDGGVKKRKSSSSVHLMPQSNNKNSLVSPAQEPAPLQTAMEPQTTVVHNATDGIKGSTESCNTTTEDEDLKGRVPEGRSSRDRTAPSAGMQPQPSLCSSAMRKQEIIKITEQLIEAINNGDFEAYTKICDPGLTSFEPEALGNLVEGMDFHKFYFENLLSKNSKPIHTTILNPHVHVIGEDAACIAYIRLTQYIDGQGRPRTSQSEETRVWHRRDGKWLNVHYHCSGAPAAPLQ
In assay [6] the target is Ribosomal protein S6 kinase alpha-4 (Homo sapiens) (UniProt O75676). The assay can be described thus: Selectivity interaction (KinomeScan (DiscoverX)) EUB0000655a RPS6KA4. The following applies: at 10 µM.
Assay [7] has as its target Serine/threonine-protein kinase N1 (Homo sapiens, UniProt Q16512). The assay is described as follows: Selectivity interaction (Kinase panel (33PanQinase(R) Activity Assay)) EUB0000877a PKN1.
Assay [8] deals with 5-hydroxytryptamine receptor 2A (Homo sapiens, UniProt P28223). The assay is described as follows: Selectivity interaction (Serotonin 5HT2A Calcium flux assay, agonist and antagonist mode ) EUB0000877a HTR2A.
For assay [9], the target named is Maternal embryonic leucine zipper kinase (Homo sapiens) (UniProt Q14680). The assay is described as follows: Selectivity interaction (ProQinase) EUB0000171b MELK.
Maternal embryonic leucine zipper kinase (Homo sapiens), sequence (Q14680 whole entry, looked up): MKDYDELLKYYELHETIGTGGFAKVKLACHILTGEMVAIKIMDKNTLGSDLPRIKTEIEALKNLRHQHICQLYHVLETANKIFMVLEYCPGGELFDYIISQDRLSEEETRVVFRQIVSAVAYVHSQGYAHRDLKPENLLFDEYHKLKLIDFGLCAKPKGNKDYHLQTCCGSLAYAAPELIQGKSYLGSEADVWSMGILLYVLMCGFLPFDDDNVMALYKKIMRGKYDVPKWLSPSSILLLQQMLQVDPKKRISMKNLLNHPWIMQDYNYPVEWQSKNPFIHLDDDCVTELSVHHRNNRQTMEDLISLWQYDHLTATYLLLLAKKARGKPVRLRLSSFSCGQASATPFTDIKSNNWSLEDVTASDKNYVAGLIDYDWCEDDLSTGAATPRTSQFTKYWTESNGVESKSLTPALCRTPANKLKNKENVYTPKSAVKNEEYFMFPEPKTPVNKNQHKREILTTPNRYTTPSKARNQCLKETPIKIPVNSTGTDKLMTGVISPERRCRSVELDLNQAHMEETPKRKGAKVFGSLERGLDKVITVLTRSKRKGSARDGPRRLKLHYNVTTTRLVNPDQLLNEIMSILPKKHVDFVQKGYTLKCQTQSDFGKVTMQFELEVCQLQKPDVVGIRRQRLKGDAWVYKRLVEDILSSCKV
In assay [10] the target is Histone-lysine N-methyltransferase, H3 lysine-79 specific (Homo sapiens, UniProt Q8TEK3). The assay can be described thus: Selectivity interaction (Transferase panel (protein, RNA, and DNA methyltransferases. and EP300 (acetyltransferase))) EUB0000270b DOT1L.
Histone-lysine N-methyltransferase, H3 lysine-79 specific, sequence (Q8TEK3 whole entry, looked up): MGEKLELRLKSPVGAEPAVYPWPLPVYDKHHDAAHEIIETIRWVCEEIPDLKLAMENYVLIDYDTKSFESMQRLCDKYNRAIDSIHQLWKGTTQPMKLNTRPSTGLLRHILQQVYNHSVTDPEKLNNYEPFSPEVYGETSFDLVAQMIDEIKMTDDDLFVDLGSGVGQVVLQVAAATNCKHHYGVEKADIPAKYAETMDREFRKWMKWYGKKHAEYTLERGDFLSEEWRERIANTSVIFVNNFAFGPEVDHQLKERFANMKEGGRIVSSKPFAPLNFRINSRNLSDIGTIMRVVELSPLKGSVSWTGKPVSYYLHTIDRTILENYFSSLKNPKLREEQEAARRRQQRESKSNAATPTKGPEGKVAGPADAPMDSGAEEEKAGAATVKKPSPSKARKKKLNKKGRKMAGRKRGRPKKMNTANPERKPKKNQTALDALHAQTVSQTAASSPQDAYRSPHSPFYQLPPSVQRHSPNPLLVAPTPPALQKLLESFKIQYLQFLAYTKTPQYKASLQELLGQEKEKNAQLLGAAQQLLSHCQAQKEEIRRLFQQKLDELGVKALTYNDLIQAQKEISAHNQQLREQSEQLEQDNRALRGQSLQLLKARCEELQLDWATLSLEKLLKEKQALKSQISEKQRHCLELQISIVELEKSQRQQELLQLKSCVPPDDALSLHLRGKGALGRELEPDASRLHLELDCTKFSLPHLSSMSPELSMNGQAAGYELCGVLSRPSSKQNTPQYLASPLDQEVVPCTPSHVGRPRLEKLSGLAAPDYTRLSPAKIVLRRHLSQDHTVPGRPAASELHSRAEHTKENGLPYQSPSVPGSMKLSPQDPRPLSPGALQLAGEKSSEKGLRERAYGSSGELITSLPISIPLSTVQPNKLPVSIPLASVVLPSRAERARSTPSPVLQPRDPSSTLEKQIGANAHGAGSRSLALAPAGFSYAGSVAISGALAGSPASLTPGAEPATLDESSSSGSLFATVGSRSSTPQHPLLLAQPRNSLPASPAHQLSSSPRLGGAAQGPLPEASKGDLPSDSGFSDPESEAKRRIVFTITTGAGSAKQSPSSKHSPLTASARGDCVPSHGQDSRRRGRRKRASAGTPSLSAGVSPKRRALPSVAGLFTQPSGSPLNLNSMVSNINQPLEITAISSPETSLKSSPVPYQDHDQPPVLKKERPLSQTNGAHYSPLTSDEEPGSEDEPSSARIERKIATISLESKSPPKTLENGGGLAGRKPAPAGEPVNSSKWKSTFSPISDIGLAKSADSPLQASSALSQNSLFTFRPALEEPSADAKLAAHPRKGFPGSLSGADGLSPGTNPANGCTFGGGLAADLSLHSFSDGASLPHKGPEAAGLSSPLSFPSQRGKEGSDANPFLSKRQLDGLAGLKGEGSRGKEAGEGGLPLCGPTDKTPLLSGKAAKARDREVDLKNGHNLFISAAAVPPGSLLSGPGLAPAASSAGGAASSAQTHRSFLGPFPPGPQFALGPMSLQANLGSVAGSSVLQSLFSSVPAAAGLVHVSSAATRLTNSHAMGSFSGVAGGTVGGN
Assay [11] has as its target T2, Mitogen-activated protein kinase kinase kinase 5 (Homo sapiens) (UniProt Q99683).
T2 sequence (whole entry): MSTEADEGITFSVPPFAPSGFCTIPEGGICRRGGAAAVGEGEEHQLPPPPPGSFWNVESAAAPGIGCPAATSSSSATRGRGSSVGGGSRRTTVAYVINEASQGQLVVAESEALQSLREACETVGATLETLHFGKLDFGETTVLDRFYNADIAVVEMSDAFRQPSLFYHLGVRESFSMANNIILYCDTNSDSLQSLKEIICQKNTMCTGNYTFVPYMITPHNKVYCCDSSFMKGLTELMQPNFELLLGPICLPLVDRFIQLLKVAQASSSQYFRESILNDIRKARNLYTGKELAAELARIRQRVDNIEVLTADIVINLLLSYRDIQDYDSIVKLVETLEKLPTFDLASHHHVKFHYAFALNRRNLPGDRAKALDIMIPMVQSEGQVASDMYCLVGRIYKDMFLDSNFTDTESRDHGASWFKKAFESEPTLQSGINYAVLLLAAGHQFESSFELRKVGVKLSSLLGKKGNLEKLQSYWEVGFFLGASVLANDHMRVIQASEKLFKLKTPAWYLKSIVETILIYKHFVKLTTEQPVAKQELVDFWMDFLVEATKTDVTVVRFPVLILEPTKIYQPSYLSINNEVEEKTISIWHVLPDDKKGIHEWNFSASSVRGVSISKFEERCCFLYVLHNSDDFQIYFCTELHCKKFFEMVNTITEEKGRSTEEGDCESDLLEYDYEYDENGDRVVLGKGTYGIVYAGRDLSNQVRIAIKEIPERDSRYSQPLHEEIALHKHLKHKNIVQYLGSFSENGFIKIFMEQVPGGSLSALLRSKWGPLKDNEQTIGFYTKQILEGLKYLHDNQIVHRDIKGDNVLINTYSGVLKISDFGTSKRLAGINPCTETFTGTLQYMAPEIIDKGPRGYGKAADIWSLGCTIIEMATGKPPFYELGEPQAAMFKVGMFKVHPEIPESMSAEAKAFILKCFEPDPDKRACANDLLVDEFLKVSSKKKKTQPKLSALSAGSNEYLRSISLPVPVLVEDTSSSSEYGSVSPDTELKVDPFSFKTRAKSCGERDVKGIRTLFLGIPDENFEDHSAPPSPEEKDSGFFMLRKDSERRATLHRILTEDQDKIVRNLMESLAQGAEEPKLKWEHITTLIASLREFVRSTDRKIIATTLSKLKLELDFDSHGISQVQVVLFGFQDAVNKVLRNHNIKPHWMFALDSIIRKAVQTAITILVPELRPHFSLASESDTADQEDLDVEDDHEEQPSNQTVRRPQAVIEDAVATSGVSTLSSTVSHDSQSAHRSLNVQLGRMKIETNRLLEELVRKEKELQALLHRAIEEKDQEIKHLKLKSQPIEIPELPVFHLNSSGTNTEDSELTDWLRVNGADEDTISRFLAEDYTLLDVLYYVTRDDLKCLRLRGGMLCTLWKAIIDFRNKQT
The assay can be described thus: Selectivity interaction (KinomeScan (DiscoverX)) EUB0000092b MAP3K5. The following applies: at 10 µM.

The target in assay [12] is Cyclin-dependent kinase 7 (Homo sapiens, UniProt P50613). The assay can be described thus: Selectivity interaction (KinomeScan (DiscoverX)) EUB0000045b CDK7.
Cyclin-dependent kinase 7, sequence (P50613 whole entry): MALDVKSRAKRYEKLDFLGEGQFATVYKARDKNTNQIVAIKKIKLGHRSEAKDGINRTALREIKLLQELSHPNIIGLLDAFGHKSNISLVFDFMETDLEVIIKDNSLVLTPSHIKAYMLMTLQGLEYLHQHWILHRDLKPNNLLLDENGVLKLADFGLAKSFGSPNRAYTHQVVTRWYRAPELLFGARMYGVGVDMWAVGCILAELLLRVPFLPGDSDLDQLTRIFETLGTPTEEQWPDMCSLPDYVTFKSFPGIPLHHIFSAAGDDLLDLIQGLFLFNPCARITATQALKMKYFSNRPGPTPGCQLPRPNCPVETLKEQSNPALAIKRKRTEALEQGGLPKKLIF
Assay [13] addresses Hepatocyte growth factor receptor (Homo sapiens, UniProt P08581). The following applies: at 1 µM.

Where only a bound is given, the exact number is not on record here.

Casein kinase II subunit alpha' (Homo sapiens), sequence (P19784 whole entry, looked up): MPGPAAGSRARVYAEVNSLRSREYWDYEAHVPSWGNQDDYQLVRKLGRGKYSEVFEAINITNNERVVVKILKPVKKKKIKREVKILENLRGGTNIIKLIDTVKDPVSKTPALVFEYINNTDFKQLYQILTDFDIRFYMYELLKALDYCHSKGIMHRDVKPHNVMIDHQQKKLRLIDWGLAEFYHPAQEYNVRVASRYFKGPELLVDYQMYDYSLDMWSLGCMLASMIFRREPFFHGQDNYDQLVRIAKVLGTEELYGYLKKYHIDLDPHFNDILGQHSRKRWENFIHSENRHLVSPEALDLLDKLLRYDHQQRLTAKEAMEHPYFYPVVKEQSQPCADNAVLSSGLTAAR

On to `C=CC(=O)Nc1ccc(C(=O)Nc2[nH]nc3c2CN(C(=O)N[C@H](CN(C)C)c2ccccc2)C3(C)C)cc1`, for which the results for the % of engagement in [1] and in assay [2] were 4.4% and -0.9%, respectively.
Molecule `O=C(NOC[C@H](O)CO)c1ccc(F)c(F)c1Nc1ccc(I)cc1F` returned a % of control in assay [3] of 83%.
In turn, `CC(C)(O)[C@H](F)CN1Cc2cc(NC(=O)c3cnn4cccnc34)c(N3CCOCC3)cc2C1=O` came in with a dTM in assay [4] of 1.6 K.
Take `COc1cc(N(C)c2ccnc3ccc(C(F)(F)F)cc23)cc(OC)c1OC`: the % binding in [5] is 90%.
The molecule `CN(C)CCOc1ccc(-c2nc(-c3ccncc3)c(-c3ccc4c(c3)CC/C4=N\O)[nH]2)cc1` registered a % of control in assay [6] of 81%.
As a reminder, the IC50 is the midpoint of a concentration-inhibition curve. Take `CCC(=O)N1CC[C@H](Nc2ncnc3c2CN(c2cnc(OC)c(C(F)(F)F)c2)CC3)C1` [LENIOLISIB]: the IC50 in assay [7] is > 10 µM; in [8], > 30 µM.
For the molecule `C=CC(=O)Nc1cccc(C(=O)Nc2ccc(Nc3cc(-c4[nH]c(SC)nc4C)ccn3)cc2)c1`, the % of control in assay [9] (at 1 µM) turned out to be 95%; in assay [9] (at 5 µM), 70%.
Take `Cc1cc(CN)cc(C)c1-c1ncn(C)c1-c1cncn1C`: the % activity is > 90% in assay [10] (at 1 µM) and > 80% in assay [10] (at 10 µM).
In the case of `CCC(=O)N1CCN(c2ccc(-n3c(=O)ccc4cnc5ccc(-c6cnc7ccccc7c6)cc5c43)cc2C(F)(F)F)CC1`, the % of control in assay [11] stood at 100%.
For `C=CC(=O)Nc1cc(-n2c(=O)ccc3cnc4ccc(-c5ccc(NS(C)(=O)=O)cc5)cc4c32)ccc1C`, the results for the % of control in [12] (at 1 µM) and in assay [12] (at 10 µM) were 79% and 26%, respectively.
The molecule `Cc1ccc(-c2ccc3c(ccc4sc5c(c43)NC[C@@H](C)NC5=O)n2)cn1` registered a % of inhibition in assay [13] of 41%.
